Patent US20230256036A1, “SERPIN PRODUCTION” (SOCIETE DES PRODUITS NESTLE S.A., priority 2020, published 2023)

How the values were obtained:
[1] = system: B. longum strain CNCM I-2618 (NCC 2705); assay: Growth of B. longum NCC 2705 in Biolector on MRSc base without sugar plus HMO; type: cell-based, Bifidobacterium longum subsp longum; settings: HMO 0.5 wt % in MRSc base without sugar, anaerobic, 37° C., 16 h
Procedure: (§1) B. longum strain CNCM I-2618 (NCC 2705) was grown in Biolector (growth conditions—anaerobic, 37° C.) in MRS+5 mM L-cysteine (MRSc) base without sugar, to which different commercially available Human Milk Oligosaccharides (HMOs) were added at a concentration of 0.5 wt %.
(§2) 48-well microtiter plate with pH sensor and dissolved oxygen (DO) sensor were used to culture the strains in Biolector (m2p-labs Aachen, Germany). It was continuously shaken to prevent bacteria aggregation for 16 h. Cultures were harvested by centrifugation and supernatant was removed. Pellet was resuspended in PBS supplemented with halt protease inhibitor (Sigma) and lysed using glassbeads. Lysate containing both soluble and insoluble material was then collected. Total protein content was measured using Pierce BCA kit (Thermofisher) and serpin protein concentration was determined using ELISA.

[2] = system: serpin protein in B. longum NCC 2705; assay: Serpin protein level by ELISA in B. longum NCC 2705 grown on HMOs; type: cell-based, Bifidobacterium longum subsp longum; settings: HMO 0.5 wt %, 16 h, FIG. 1
Procedure: as §1, §2

[3] = system: B. longum subsp. longum strains; assay: Growth of B. longum subsp. longum strains on LNT as sole carbohydrate source; type: cell-based, Bifidobacterium longum subsp longum; settings: 0.5% LNT in MRSc base without sugar, 16 h, all tested B. longum subsp. longum strains
Procedure: as §1, §2
The serpin encoding gene and its surrounding is highly conserved within the B. longum subsp. longum species. Strains of B. longum subsp. longum were selected to represent the entire span of the genetic phylogenetic tree (Table 2). All strains were cultured in Biolector (according to example 1) in a MRSc base without sugar, to which 0.5% glucose or 0.5% of LNT was added. Cultures were grown for 16 h and harvested. Obtained pellets were further analyzed for total and serpin protein content (see example 1).

[4] = system: serpin protein in B. longum subsp. longum strains; assay: Serpin protein level by ELISA in B. longum subsp. longum strains grown on glucose or LNT; type: cell-based, Bifidobacterium longum subsp longum; settings: 0.5% LNT vs 0.5% glucose, 16 h, all tested strains, FIG. 2
Procedure: 48-well microtiter plate with pH sensor and dissolved oxygen (DO) sensor were used to culture the strains in Biolector [MUT]-labs Aachen, Germany). It was continuously shaken to prevent bacteria aggregation for 16 h. Cultures were harvested by centrifugation and supernatant was removed. Pellet was resuspended in PBS supplemented with halt protease inhibitor (Sigma) and lysed using glassbeads. Lysate containing both soluble and insoluble material was then collected. Total protein content was measured using Pierce BCA kit (Thermofisher) and serpin protein concentration was determined using ELISA. […] All strains were cultured in Biolector (according to example 1) in a MRSc base without sugar, to which 0.5% glucose or 0.5% of LNT was added. Cultures were grown for 16 h and harvested. Obtained pellets were further analyzed for total and serpin protein content (see example 1).

[5] = system: serpin in Bifidobacterium longum subsp longum; assay: Serpin induction by LNT in culture medium containing glucose; type: cell-based; settings: only when the glucose is present at levels allowing its depletion during fermentation
From the text: LNT may be added to a conventional culture medium comprising up to 8 wt %, preferably up to 6 wt %, for example up to 4 wt %, of another sugar suitable to sustain B. longum growth, such as, but not limited to, glucose. […] Preferably the culture medium at the end of the fermentation contains less than 0.4 wt % glucose, such as from 0 wt % to 0.3 wt % glucose, for example from 0.02 wt % to 0.4 wt %, or from about 0.05 wt % to about 0.3 wt %. Conventional culture mediums suitable for growth of B. longum are well known to the person skilled in the art.

For `CC(=O)N[C@H]1[C@H](O[C@H]2[C@@H](O)[C@@H](CO)O[C@@H](O[C@H]3[C@H](O)[C@@H](O)C(O)O[C@@H]3CO)[C@@H]2O)O[C@H](CO)[C@@H](O)[C@@H]1O[C@@H]1O[C@H](CO)[C@H](O)[C@H](O)[C@H]1O` (some centres unmarked) [LNT, Lacto-N-tetraose], the “support of growth of B. longum NCC 2705” value [1] was “the only one supporting the growth”, the “levels of serpin protein in B. longum NCC 2705” value [2] was “significantly increase” and the “growth on LNT as sole carbohydrate source” value [3] was “able to grow”. The “serpin protein levels in B. longum subsp. longum strains” value [4] was “increased” and the “induction of serpin production when glucose is present” value [5] was “can induce production of serpin”.
